# Activity calls are given as the source filed them.
# How the values were obtained:
# [1] = molecular target: Alkaline phosphatase, placental type (Homo sapiens, UniProt P05187); assay: human placental alkaline phosphatase inhibition – biochemical, luminescence, confirmation (AID 1512); assay type: functional
# [2] = molecular target: T1, Hexokinase (Trypanosoma brucei, UniProt Q38C41); assay: Confirmation assay for inhibitors of Trypanosoma brucei hexokinase 1-Analogue-first series. [Related pubchem assays (depositor defined):AID1430, AID1632, AID2516, AID2560, AID2579, AID2600, AID449725, AID492951]; assay type: functional
# T1 sequence (Q38C41 whole entry): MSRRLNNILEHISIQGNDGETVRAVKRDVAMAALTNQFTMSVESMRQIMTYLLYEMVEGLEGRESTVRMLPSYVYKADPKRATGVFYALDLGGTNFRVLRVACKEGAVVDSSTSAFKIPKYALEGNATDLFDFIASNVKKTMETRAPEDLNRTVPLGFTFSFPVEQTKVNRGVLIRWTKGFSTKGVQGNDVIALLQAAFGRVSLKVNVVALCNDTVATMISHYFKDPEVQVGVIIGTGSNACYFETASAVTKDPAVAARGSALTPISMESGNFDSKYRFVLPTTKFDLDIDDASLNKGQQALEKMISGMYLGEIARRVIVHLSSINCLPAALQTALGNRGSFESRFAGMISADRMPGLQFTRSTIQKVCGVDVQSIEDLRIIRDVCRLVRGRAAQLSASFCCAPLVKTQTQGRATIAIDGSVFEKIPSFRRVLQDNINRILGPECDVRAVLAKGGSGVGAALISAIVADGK
# [3] = molecular target: T2, CAAX prenyl protease 2 (Saccharomyces cerevisiae S288c, UniProt Q03530); assay type: biochemical
# T2 sequence (Q03530 whole entry): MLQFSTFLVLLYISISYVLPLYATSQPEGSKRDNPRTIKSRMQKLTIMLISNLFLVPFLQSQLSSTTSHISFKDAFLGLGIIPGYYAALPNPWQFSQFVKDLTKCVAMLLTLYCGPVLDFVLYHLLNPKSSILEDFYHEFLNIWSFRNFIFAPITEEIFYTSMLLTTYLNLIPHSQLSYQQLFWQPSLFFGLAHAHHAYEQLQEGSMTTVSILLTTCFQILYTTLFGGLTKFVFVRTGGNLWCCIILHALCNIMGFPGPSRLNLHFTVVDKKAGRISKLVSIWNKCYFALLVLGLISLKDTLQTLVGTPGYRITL
# [4] = molecular target: T3, Acyl-homoserine lactone acylase PvdQ (Pseudomonas aeruginosa (strain LESB58), UniProt Q9I194); assay: PvdQ acylase enzyme activity blockers – biochemical, fluorescence, plate reader and imaging, cherry-picks, dose response (AID 493231)
# T3 sequence (Q9I194 whole entry): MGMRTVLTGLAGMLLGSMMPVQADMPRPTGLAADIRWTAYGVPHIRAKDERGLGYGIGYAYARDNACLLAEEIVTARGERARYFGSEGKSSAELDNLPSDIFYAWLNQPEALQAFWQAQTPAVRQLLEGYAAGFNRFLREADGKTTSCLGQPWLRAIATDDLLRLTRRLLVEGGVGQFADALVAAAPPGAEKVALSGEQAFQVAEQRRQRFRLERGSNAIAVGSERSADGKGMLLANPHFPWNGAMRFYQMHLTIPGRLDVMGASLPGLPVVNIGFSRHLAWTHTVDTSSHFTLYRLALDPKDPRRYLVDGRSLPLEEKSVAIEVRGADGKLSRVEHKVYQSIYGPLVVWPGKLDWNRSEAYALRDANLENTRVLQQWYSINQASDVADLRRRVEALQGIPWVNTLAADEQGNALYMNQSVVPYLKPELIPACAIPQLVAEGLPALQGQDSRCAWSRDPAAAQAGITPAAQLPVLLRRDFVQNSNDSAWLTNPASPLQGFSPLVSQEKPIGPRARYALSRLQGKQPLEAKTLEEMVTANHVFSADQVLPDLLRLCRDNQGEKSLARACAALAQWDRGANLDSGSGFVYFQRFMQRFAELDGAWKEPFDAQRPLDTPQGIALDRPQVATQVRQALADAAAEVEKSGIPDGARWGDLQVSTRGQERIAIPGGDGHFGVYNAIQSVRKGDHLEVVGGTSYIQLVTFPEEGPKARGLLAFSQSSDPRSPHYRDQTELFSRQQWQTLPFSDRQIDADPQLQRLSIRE
# [5] = molecular target: T4, C-C chemokine receptor type 6 (Homo sapiens, UniProt P51684); assay: antagonism of CCR6 beta-arrestin recruitment – cell-based, luminescent beta-arrestin readout, dose response (AID 504728); assay type: functional
# T4 sequence (P51684 whole entry): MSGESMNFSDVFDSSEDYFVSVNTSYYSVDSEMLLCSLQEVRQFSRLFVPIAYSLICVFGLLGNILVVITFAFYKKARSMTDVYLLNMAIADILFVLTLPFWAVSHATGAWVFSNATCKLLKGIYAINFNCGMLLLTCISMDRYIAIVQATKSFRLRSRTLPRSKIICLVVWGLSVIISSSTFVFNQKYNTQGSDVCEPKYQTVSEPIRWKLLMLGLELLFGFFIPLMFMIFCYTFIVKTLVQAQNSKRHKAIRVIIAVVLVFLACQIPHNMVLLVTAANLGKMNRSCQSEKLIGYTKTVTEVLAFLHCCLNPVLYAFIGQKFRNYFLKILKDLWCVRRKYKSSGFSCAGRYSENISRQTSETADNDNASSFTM
# [6] = molecular target: Beta-galactosidase (Escherichia coli, UniProt Q8VNN2); assay: detection-enzyme interference by beta-gal modulators – biochemical, E. coli enzyme, set 3, artefact control for CCR6 antagonist project, dose response (AID 504712); assay type: functional
# [7] = molecular target: T5, Corticotropin-releasing factor receptor 2/Corticotropin-releasing factor-binding protein (Homo sapiens, UniProt P24387+Q13324); assay: Dose Response confirmation of uHTS hits for small molecule antagonists of the CRF-binding protein and CRF-R2 receptor complex.; assay type: functional; settings: read-out: IC50_Mean
# T5 sequence (Q13324 whole entry): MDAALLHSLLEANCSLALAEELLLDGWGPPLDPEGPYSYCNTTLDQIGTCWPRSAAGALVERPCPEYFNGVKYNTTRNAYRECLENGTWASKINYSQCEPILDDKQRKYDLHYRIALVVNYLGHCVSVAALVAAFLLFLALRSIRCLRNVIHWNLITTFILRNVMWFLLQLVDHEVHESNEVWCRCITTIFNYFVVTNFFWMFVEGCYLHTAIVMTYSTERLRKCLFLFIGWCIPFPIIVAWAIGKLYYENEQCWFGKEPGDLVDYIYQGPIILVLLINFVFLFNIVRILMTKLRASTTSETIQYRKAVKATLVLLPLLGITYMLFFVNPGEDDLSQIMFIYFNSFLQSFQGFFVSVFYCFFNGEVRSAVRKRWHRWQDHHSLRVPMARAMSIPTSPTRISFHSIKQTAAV
# T5 sequence (P24387 whole entry): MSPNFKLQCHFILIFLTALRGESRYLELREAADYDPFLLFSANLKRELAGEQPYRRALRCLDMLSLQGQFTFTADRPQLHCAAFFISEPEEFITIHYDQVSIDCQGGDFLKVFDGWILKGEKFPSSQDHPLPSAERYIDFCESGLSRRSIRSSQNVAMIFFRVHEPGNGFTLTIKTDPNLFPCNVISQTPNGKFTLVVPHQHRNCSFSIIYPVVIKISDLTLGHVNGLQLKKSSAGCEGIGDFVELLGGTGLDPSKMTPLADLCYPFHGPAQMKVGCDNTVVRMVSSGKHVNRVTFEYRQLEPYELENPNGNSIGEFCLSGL
# [8] = molecular target: Heat shock protein HSP 90-alpha (Homo sapiens, UniProt P07900); assay type: functional, organism-based
# [9] = molecular target: T5, Corticotropin-releasing factor receptor 2/Corticotropin-releasing factor-binding protein; assay: activators of CRF receptor 2 with binding protein – uHTS hits, confirmation (AID 602473); assay type: functional; settings: read-out: EC50_Mean
# [10] = molecular target: T6, Voltage-gated N-type calcium channel alpha-1B subunit/Amyloid beta A4 precursor protein-binding family A member 1 (Homo sapiens, UniProt Q00975+Q02410); assay type: protein assay
# [11] = molecular target: T6, Voltage-gated N-type calcium channel alpha-1B subunit/Amyloid beta A4 precursor protein-binding family A member 1; assay type: protein assay; remark: listed apart in the source
# [12] = molecular target: Induced myeloid leukemia cell differentiation protein Mcl-1 (Homo sapiens, UniProt Q07820); assay type: functional
# [13] = molecular target: T7, Aminopeptidase N (Plasmodium falciparum FcB1/Columbia, UniProt O96935); assay: malaria alanyl aminopeptidase activity blockers – biochemical, fluorogenic H-Leu-NHMec substrate, 1536-well (AID 1445); parameters: species or system Plasmodium falciparum 3D7, 3D7
# T7 sequence (O96935 whole entry): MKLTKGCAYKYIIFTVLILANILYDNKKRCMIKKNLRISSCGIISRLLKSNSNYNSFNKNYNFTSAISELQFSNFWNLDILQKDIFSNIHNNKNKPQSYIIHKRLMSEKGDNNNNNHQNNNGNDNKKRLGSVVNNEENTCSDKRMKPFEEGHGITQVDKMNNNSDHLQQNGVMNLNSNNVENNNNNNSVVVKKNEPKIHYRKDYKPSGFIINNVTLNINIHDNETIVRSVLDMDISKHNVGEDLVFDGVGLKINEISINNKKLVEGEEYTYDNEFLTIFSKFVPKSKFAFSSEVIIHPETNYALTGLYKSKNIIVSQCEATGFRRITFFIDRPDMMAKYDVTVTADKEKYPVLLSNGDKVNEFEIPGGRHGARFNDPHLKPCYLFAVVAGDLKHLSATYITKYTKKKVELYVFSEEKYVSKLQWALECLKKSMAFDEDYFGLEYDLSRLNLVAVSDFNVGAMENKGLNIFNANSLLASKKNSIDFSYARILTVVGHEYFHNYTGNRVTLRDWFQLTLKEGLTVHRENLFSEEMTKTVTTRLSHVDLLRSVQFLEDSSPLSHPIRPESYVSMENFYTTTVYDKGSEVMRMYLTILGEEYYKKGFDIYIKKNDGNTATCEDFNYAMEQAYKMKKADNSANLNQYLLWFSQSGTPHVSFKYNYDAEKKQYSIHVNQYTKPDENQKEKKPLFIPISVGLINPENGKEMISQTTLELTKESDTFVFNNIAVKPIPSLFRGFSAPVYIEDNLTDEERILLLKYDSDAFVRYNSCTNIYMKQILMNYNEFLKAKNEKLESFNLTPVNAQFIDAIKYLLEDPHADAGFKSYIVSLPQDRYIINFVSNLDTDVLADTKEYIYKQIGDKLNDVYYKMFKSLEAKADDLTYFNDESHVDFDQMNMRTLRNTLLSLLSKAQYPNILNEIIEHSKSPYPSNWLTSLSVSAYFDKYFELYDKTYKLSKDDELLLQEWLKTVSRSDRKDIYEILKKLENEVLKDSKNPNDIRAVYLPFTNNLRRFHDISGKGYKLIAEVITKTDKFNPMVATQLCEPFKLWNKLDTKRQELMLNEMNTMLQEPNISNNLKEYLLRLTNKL
# Beta-galactosidase, sequence (Q8VNN2 whole entry): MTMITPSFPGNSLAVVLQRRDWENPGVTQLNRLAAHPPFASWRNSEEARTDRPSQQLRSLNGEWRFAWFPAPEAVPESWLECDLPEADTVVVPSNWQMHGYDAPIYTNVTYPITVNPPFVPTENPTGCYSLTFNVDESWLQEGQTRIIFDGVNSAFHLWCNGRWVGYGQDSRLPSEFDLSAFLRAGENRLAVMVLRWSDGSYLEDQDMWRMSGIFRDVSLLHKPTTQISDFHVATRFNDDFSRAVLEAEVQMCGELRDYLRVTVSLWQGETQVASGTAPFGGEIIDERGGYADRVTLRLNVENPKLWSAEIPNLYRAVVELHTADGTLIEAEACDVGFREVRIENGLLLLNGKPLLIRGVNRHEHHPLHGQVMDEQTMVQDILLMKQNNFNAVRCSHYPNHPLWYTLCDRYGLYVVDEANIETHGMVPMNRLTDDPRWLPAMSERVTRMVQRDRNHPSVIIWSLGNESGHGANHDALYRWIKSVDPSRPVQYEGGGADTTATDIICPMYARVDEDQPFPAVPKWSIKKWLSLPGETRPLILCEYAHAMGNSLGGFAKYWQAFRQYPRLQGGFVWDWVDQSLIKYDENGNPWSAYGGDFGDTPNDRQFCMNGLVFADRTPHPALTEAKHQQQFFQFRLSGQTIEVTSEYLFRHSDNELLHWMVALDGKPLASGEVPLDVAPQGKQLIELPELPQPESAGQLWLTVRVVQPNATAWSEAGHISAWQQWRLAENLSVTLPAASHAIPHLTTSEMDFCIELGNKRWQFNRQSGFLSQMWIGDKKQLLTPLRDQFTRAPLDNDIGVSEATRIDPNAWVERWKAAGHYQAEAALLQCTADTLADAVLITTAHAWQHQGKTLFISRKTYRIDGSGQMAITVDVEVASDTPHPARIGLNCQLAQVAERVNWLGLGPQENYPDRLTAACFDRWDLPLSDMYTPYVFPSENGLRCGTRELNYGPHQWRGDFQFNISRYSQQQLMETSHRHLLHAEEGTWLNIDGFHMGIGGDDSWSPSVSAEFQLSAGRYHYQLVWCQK
# T6 sequence (Q00975 whole entry): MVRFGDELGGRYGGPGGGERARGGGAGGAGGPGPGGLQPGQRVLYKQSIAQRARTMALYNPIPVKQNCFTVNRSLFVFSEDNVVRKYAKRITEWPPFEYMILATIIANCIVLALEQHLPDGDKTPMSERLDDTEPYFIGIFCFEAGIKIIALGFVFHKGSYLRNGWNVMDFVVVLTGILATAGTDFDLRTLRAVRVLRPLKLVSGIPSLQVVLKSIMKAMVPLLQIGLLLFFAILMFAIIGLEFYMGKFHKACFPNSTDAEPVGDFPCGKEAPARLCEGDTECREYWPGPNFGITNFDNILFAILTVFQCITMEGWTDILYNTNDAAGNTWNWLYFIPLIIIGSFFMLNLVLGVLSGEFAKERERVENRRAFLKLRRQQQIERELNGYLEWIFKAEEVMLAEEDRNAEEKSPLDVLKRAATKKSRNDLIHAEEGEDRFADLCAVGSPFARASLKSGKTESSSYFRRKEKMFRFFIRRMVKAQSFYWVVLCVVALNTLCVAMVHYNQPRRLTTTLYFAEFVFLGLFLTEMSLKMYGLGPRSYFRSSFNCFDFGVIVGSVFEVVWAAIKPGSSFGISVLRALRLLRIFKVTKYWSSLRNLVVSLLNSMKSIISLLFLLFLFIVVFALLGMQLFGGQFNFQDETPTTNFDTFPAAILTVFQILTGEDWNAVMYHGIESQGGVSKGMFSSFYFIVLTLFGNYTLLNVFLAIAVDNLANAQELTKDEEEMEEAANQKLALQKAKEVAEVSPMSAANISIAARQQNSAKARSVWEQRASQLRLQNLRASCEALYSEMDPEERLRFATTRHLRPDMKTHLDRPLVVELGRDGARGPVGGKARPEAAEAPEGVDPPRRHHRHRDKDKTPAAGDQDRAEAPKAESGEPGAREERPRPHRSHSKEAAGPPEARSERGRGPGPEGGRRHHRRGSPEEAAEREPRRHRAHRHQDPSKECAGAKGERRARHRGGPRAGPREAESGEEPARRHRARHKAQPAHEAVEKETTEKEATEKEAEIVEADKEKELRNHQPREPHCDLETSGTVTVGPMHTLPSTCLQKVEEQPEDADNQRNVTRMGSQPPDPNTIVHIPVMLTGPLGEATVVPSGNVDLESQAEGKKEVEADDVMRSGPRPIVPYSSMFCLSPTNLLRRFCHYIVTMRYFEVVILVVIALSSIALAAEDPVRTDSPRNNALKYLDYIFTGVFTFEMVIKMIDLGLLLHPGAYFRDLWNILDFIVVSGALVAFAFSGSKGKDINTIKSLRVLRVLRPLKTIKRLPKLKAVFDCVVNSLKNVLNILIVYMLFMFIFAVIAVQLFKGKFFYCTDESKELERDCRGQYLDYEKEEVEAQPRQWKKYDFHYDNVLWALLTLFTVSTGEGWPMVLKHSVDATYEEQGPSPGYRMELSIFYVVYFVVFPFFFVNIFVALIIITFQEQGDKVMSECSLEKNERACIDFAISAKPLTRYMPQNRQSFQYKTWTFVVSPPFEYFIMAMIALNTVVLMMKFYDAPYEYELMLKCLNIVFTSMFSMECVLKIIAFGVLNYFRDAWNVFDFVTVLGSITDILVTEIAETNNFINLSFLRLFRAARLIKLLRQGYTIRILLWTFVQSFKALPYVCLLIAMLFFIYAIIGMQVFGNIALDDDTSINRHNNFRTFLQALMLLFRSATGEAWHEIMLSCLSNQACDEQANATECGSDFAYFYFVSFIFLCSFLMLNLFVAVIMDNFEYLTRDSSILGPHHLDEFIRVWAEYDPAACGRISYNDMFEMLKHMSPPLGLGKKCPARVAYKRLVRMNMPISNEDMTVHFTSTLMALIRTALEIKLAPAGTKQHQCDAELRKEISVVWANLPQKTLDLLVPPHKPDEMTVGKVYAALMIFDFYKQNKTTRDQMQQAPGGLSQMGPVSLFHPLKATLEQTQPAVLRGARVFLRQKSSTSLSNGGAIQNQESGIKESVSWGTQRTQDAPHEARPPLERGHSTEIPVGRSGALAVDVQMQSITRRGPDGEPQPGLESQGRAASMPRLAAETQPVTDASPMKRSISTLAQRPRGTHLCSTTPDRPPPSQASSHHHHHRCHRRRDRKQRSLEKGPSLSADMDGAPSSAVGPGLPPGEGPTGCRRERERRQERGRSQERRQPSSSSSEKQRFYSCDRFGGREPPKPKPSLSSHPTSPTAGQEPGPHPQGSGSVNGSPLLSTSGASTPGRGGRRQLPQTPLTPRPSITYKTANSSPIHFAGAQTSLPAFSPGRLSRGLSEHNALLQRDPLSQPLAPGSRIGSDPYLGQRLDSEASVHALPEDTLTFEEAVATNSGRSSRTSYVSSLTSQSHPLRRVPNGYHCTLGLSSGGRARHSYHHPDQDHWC
# T6 sequence (Q02410 whole entry): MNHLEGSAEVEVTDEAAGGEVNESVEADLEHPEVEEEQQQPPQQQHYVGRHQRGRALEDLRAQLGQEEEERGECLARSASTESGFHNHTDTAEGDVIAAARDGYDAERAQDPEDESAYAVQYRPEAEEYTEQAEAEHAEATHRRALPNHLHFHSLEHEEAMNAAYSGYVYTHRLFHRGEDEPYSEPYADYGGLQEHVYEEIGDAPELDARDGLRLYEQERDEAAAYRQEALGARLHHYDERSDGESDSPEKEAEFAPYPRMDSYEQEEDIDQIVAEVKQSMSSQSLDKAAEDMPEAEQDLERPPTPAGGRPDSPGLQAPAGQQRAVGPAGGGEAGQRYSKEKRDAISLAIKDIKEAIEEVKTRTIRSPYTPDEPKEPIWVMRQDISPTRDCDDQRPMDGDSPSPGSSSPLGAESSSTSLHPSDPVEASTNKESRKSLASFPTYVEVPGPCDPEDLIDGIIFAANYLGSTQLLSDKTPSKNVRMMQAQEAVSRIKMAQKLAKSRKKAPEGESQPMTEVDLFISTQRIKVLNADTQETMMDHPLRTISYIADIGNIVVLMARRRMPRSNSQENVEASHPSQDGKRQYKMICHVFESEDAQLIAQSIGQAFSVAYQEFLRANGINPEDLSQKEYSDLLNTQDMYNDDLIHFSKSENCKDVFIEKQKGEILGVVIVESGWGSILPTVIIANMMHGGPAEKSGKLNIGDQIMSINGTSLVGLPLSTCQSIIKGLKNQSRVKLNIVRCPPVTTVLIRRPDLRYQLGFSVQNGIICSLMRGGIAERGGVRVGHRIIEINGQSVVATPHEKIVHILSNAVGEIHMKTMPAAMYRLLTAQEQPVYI
# Induced myeloid leukemia cell differentiation protein Mcl-1, sequence (Q07820 whole entry): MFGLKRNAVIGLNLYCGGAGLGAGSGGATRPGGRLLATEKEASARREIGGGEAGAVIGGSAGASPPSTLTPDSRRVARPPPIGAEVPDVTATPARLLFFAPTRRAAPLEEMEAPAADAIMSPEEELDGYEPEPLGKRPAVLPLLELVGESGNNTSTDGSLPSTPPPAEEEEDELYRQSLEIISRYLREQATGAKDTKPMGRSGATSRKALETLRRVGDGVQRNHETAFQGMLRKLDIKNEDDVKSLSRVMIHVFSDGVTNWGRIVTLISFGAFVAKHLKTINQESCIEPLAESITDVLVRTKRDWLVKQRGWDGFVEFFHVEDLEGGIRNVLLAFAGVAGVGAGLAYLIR
# Alkaline phosphatase, placental type, sequence (P05187 whole entry): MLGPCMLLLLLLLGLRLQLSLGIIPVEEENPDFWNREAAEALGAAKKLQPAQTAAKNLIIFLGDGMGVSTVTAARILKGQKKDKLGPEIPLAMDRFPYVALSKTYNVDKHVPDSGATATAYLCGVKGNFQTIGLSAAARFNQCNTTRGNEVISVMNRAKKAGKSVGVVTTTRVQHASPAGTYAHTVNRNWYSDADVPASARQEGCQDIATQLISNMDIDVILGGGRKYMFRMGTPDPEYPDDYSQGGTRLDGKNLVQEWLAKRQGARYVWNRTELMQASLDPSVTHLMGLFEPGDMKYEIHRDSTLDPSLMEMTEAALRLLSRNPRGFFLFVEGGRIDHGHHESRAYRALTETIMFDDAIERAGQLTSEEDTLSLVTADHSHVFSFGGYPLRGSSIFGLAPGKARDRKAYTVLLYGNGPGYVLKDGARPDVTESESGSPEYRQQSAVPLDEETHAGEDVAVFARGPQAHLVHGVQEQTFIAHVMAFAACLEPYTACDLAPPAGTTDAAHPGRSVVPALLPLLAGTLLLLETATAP
smiles,measurement,setting,value
Cn1cc(Br)c(C(=O)NNC(=O)c2cccc(Br)c2)n1,IC50,[1],> 100 µM (inactive)
O=C(Nc1cc(Cl)ccc1C(=O)O)c1ccc2ccccc2c1,IC50,[2],5.41 µM (active)
CC1CCN(C(=O)C2CCN(S(=O)(=O)c3ccc(-n4cnnn4)cc3)CC2)CC1,AC50,[3],22.8 µM (active)
COc1cccc(C(=O)CC(C#N)c2ccc(F)cc2)c1 (stereo not given),AC50,[4],6.55 µM (active)
CC(=O)O/C(=C1\CC2C3CC=C4CC(OC(C)=O)CCC4(C)C3CCC2(C)C1=O)C(F)(F)F (stereo not given),IC50,[5],> 66.6 µM (inactive)
same,IC50,[6],> 66.6 µM (inactive)
COc1ccc(/C=C2/CCC(CN3CCOCC3)C2=O)cc1 (stereo not given),IC50,[5],21.1 µM (inactive)
same,IC50,[7],> 47.1 µM (inactive)
same,AC50,[8],902 nM (active)
same,IC50,[6],> 66.6 µM (inactive)
same,EC50,[9],> 53 µM (inactive)
CC(=O)Nc1ccc(C2=NN=C(Nc3cccc(S(=O)(=O)N(C)C)c3)SC2)cc1,IC50,[10],3.56 µM (active)
same,IC50,[11],> 50 µM (inactive)
same,IC50,[12],4.2 µM (active)
CNC(=O)c1nc[nH]c1C(=O)N[C@@H](CC(C)C)C(=O)OC(C)(C)C,IC50,[13],39.3 µM (active)

# Reference: ChEMBL document CHEMBL1201862, “PubChem BioAssay data set” (2004)
